Measurements as given in patent US20090123907A1 (priority 2004, published 2009).

Experiments:
red blood cells = test: Red blood cell integrity during storage at 4° C.; type: cell-based; parameters: MCV Day 20 / MCV Day 33: unit not given here; details: for RBC Day 1: whole blood; for MCV Day 20 / MCV Day 33: whole blood stored at 4° C.
Method: In this experiment whole blood (an aliquot of which clotted within 10 minutes without anticoagulant) was modified by adding a number of different anticoagulant compositions. Sodium citrate was used as an anticoagulant at 0.65%, 0.75% and 0.9% by weight. These are all higher citrate levels than the usual 0.4% by weight. Amino acid citrates (lysine or arginine) were used at 0.65%, 0.75% and 0.9% by weight based on the weight of the citric acid. The amino acid counterion was used in sufficient quantity to adjust the pH as explained above.
To judge red cell condition the blood was counted and various other measurements were taken initially and after 20 and 33 days of storage at 4° C. Apparent initial/differences in RBC counts are due to dilution caused by adding extra anticoagulant. Mean cell volume (MCV) is a red cell index that is a useful measure of red cell health. […] It is believed that a citrate level of at least about 1.0% by weight (i.e., more than two times the usual amount) is necessary to ensure against all activation of plasma proteins. […] On the other hand, amino acid citrates, which are very effective anticoagulants, are also effective at preventing red cell damage.

plasma proteins [1] = test: Protein resistance to room temperature aging; details: Na citrate 0.4%, lysine citrate 2%
From the text: […]. In many cases heat treatments have been used to reduce or eliminated infectious agents from blood products. A problem with such an approach has been heat induced changes in the antigenicity of certain blood components. […]. A continuation of this experiment was set up to check also long term room temperature stability. It is generally believed that resistance to heat is an indicator of room temperature stability. That is the justification for estimating long term stability of products by using “accelerated” stability tests based on storage at an elevated temperature. In the presented experiment it is important to note that different plasma sample were used for the two different anticoagulants because a single sample was not large enough to provide sufficient volume for all of the tests over the life of the extended experiment.
It was anticipated that protection against damage due to elevated temperature would also provide greater stability at room temperature. It will be appreciated that the need to rapidly freeze plasma to ensure stability and the need to freeze or refrigerate plasma for transport greatly complicates the use of plasma under situations of war or emergency or in developing countries where refrigeration may not be readily available. […] […]. […] […]. Although great effort is taken to ensure sterility of the plasma, any blood product procured by means of venipuncture may become contaminated by skin bacteria. […] […]. Those proteins that do lose activity decrease only slightly as compared to much more dramatic decreases in sodium citrate storage.

plasma proteins [2] = test: Protein resistance to vortexing; details: for Alk. Phos / LDH / SGOT / SGPT / fIX / fV / fVIII / fibrinogen: plasma, Na citrate 0.4%, lysine citrate 2.0%
Method: As the basic anticoagulant experiments were carried out, additional advantages to the new anticoagulation system became apparent. The inventor has long believed that the effects of citrate on proteins, and in particular plasma proteins, goes beyond mere chelation of calcium. As mentioned above, citrate complexes with or otherwise potentiates the precipitation of plasma proteins. […] Soluble protein can be denatured by vigorous mixing and the resulting exposure to the air-water interfaces present in foam. […]. Two ten ml tubes of each plasma were prepared and held at room temperature for thirty minutes. A “pretreatment” sample (Pre) was removed from each tube and set aside. Then the tubes were subjected to vigorous mixing using a vortex (rotary) mixer for 30 min.
[…]. […] […].

[3] = after vortexing, 2% sodium citrate (similar experiment, data not shown)
[4] = after vortexing, sodium citrate 0.4%, lysine citrate 2%

O=C([O-])CC(O)(CC(=O)[O-])C(=O)[O-].[Na+].[Na+].[Na+] [Na Citrate, sodium citrate, reference compound]
RBC Day 1 (red blood cells; anticoagulant 0.65 wgt %): 5.43 10^6/μl | MCV Day 20 (red blood cells; anticoagulant 0.65 wgt %): 97.1 | MCV Day 33 (red blood cells; anticoagulant 0.65 wgt %): 94.3 | RBC Day 1 (red blood cells; anticoagulant 0.75 wgt %): 5.86 10^6/μl | MCV Day 20 (red blood cells; anticoagulant 0.75 wgt %): 98.7 | MCV Day 33 (red blood cells; anticoagulant 0.75 wgt %): 103.2 | RBC Day 1 (red blood cells; anticoagulant 0.90 wgt %): 6.07 10^6/μl | MCV Day 20 (red blood cells; anticoagulant 0.90 wgt %): 97.8 | MCV Day 33 (red blood cells; anticoagulant 0.90 wgt %): 103.3 | Alk. Phos (plasma proteins [1]; 0 days at room temperature): 30 IU/.L | LDH (plasma proteins [1]; 0 days at room temperature): 110 IU/L | SGOT (plasma proteins [1]; 0 days at room temperature): 18 IU/L | SGPT (plasma proteins [1]; 0 days at room temperature): 32 IU/L | fIX (plasma proteins [1]; 0 days at room temperature): 104% | fV (plasma proteins [1]; 0 days at room temperature): 98% | fVIII (plasma proteins [1]; 0 days at room temperature): 109% | fibrinogen (plasma proteins [1]; 0 days at room temperature): 206 mg/dL | Alk. Phos (plasma proteins [1]; 7 days at room temperature): 29 IU/.L | LDH (plasma proteins [1]; 7 days at room temperature): 111 IU/L | SGOT (plasma proteins [1]; 7 days at room temperature): 18 IU/L | SGPT (plasma proteins [1]; 7 days at room temperature): 30 IU/L | fIX (plasma proteins [1]; 7 days at room temperature): 107% | fV (plasma proteins [1]; 7 days at room temperature): 102% | fVIII (plasma proteins [1]; 7 days at room temperature): 100% | fibrinogen (plasma proteins [1]; 7 days at room temperature): 181 mg/dL | Alk. Phos (plasma proteins [1]; 14 days at room temperature): 31 IU/.L | LDH (plasma proteins [1]; 14 days at room temperature): 108 IU/L | SGOT (plasma proteins [1]; 14 days at room temperature): 15 IU/L | SGPT (plasma proteins [1]; 14 days at room temperature): 26 IU/L | fIX (plasma proteins [1]; 14 days at room temperature): 93% | fV (plasma proteins [1]; 14 days at room temperature): 102% | fVIII (plasma proteins [1]; 14 days at room temperature): 92% | fibrinogen (plasma proteins [1]; 14 days at room temperature): 173 mg/dL | Alk. Phos (plasma proteins [1]; 21 days at room temperature): 28 IU/.L | LDH (plasma proteins [1]; 21 days at room temperature): 103 IU/L | SGOT (plasma proteins [1]; 21 days at room temperature): 12 IU/L | SGPT (plasma proteins [1]; 21 days at room temperature): 20 IU/L | fIX (plasma proteins [1]; 21 days at room temperature): 56% | fV (plasma proteins [1]; 21 days at room temperature): 44% | fVIII (plasma proteins [1]; 21 days at room temperature): 78% | fibrinogen (plasma proteins [1]; 21 days at room temperature): 167 mg/dL | Alk. Phos (plasma proteins [2]; Post 30 min vortexing): 15 IU/.L | LDH (plasma proteins [2]; Post 30 min vortexing): 33 IU/L | SGOT (plasma proteins [2]; Post 30 min vortexing): 1 IU/L | SGPT (plasma proteins [2]; Post 30 min vortexing): 1 IU/L | fIX (plasma proteins [2]; Post 30 min vortexing): 44% | fV (plasma proteins [2]; Post 30 min vortexing): 21% | fVIII (plasma proteins [2]; Post 30 min vortexing): 32% | fibrinogen (plasma proteins [2]; Post 30 min vortexing): 106 mg/dL | Alk. Phos (plasma proteins [2]; Pre vortexing): 27 IU/.L | LDH (plasma proteins [2]; Pre vortexing): 100 IU/L | SGOT (plasma proteins [2]; Pre vortexing): 15 IU/L | SGPT (plasma proteins [2]; Pre vortexing): 29 IU/L | fIX (plasma proteins [2]; Pre vortexing): 103% | fV (plasma proteins [2]; Pre vortexing): 98% | fVIII (plasma proteins [2]; Pre vortexing): 102% | fibrinogen (plasma proteins [2]; Pre vortexing): 258 mg/dL | LDH, % of the initial value (plasma proteins [2]; [3]): 48% | SGOT, % of the initial value (plasma proteins [2]; [3]): 33% | SGPT, % of the initial value (plasma proteins [2]; [3]): 32% | alkaline phosphatase, % of the initial value (plasma proteins [2]; [3]): 80% | factor IX, % of the initial value (plasma proteins [2]; [3]): 62% | factor V, % of the initial value (plasma proteins [2]; [3]): 52% | factor Viii, % of the initial value (plasma proteins [2]; [3]): 57% | fibrinogen, % of the initial value (plasma proteins [2]; [3]): 69% | Alkaline phosphatase, % of its initial value (plasma proteins [2]; [4]): 55% | LDH, % of initial value (plasma proteins [2]; [4]): 33% | SGOT, % of initial value (plasma proteins [2]; [4]): 6.6% | SGPT, % of initial value (plasma proteins [2]; [4]): 3.4% | factor IX, % of initial value (plasma proteins [2]; [4]): 43% | factor V, % of initial value (plasma proteins [2]; [4]): 21% | factor VIII, % of initial value (plasma proteins [2]; [4]): 31% | fibrinogen, % of initial value (plasma proteins [2]; [4]): 4%
